Several values for one entry are separate records, joined by “and”; a condition that tells them apart may be missing. Equal values may be shown once.
Columns and labels:
[1] = quantitative (Q) 1H NMR spectroscopy, proportion of SSA becoming NMR silent (higher-order aggregates); type: physicochemical
Method: To confirm the presence of higher order self-associative structures quantitative (Q) ^1H NMR spectroscopy studies were undertaken at 5.6 mM in D2O 5% EtOH. Here the ^1H NMR resonances attributed to the EtOH are used as an internal standard.
Table S1 – Overview of results of the quantitative (Q) 1H NMR studies for 1, 3, 5, 7 and 9
5.0 % EtOH . Values given in % represent the observed proportion of the SSA that has become
Table S2 – Overview of results of the quantitative (Q) 1H NMR studies for 2, 4, 6, 8 and 10
5.0 % EtOH. Values given in % represent the observed proportion of anion and cation that has

[2] = tensiometry: critical aggregate concentration (CAC) and surface tension; type: physicochemical
Method: As the (Q) ^1H NMR spectroscopy experiments conducted at 5.6 mM in a D2O 5.0% EtOH solution confirmed the presence of higher-order self-associated structures with solid-like properties, concentration dependent surface tension measurements, obtained through tensiometry, were used to calculate critical aggregate concentration (CAC). Here the CAC is defined as the point at which an increase in SSA concentration no longer decreases surface tension but instead results in the formation of higher-order self-associated structures.

[3] = dynamic light scattering (DLS) of SSA aggregates; type: physicochemical; settings: 5.6 mM, H2O 5.0% EtOH, 298 K; listed as 10
Method: Dynamic light scattering (DLS) and zeta potential measurements in H2O 5.0% EtOH were used to determine the hydrodynamic diameter (dH) and stability of the higher-order SSA aggregates detected by (Q) ^1H NMR spectroscopy at 5.6 mM, Table 1. […] However, we are unable to confidently report a dH for 1 due to the instability of this system, which is supported by a zeta potential value of −26 mV, obtained for this SSA under the same experimental conditions. […] Due to the instability of these systems in the absence of solvent, attempts to further characterise these systems through SEM or AFM are not possible.[48]

K. pneumoniae M6 = assay: inhibition of bacterial growth, OD600 after 20 h; type: cell-based, Klebsiella pneumoniae; settings: SSA 5.0 mM, 2.5% ethanol, negative = enhanced growth
Method: (§1) With the self-associative properties of 1–10 established, the antimicrobial activity of these SSAs were determined against a panel of clinically relevant, high-priority pathogens including: P. aeruginosa PAO1; Klebsiella pneumonia (K. pneumoniae) M6; E. coli NCTC 12923; Acinetobacter baumannii (A. baumannii) ATCC 17978; S. aureus ATCC 9144; Enterococcus faecalis (E. faecalis) NCTC 775; and Enterococcus faecium (E. faecium) NCTC 12204. […] However, it should be noted that the SSA stock solution was prepared in a H2O 5% EtOH solution, to ensure that the SSA aggregates formed were in line with those characterised within the scope of the SSA self-association studies.
(§2) Section 3: Biological methods
(§3) These methods were taken directly from UK Health and Security Office (UKHSA) standard […]
(§4) Preparation of Luria Broth media (LB): Yeast extract (5.0 g), tryptone (10.0 g) and sodium chloride (10.0 g) were dissolved in dH₂O (1.0 L) then divided into bottles and autoclaved.
(§5) Preparation of Luria Broth (LB) agar plates: Agar (6.0 g) was added to LB (400 mL) and autoclaved. Once cool, the LB agar was poured into sterile petri dishes under sterile conditions and allowed to set. LB plates were stored at 4 °C until use.
(§6) Preparation of bacterial plates: Sterile LB agar plates were streaked using streaked using the desired bacteria i) Pseudomonas aeruginosa (P.aeruginosa) PAO1, ii) Klebsiella pneumoniae (K. pneumoniae) M6 iii) E. coli NCTC 12923 and iv) Acinetobacter baumannii (A. baumannii) ATCC 17978 and Gram-positive i) Staphylococcus aureus (S. aureus) ATCC 9144 ii) Enterococcus faecalis (E. faecalis) NCTC 775 and iii) Enterococcus faecium (E. faecium ) NCTC 12204, then incubated at 37 °C overnight.
(§7) Preparation of Inoculum: An initial culture was made up by inoculating LB media (5 mL) with a single colony of bacteria under sterile conditions and incubated at 37 °C with shaking overnight. The following day, overnight bacterial cultures were subcultured into fresh LB medium to a starting OD600 of 0.01.
(§8) Preparation of 96 well microplate for MIC50: The 1:100 cell suspension (150 µL) was dispensed into individual wells under sterile conditions. SSAs (30 µL) were added to the wells to equal a total volume of 180 µL in the wells. Six repeats of each concentration for each SSA were created each plate. The plates were sealed using parafilm, then incubated at 37 °C in a microplate reader for 20 hours. OD600 endpoint data was used to generate growth curves. […]

E. coli NCTC 12923 = assay: inhibition of bacterial growth, OD600 after 20 h; type: cell-based, Escherichia coli; settings: SSA 5.0 mM, 2.5% ethanol, negative = enhanced growth
Method: as §1, §2, §3, §4, §5, §6, §7, §8

A. baumannii ATCC 17978 = assay: inhibition of bacterial growth, OD600 after 20 h; type: cell-based, Acinetobacter baumannii; settings: SSA 5.0 mM, 2.5% ethanol, negative = enhanced growth, listed as 10
Method: as §1, §2, §3, §4, §5, §6, §7, §8

S. aureus ATCC 9144 = assay: inhibition of bacterial growth, OD600 after 20 h; type: cell-based, Staphylococcus aureus; settings: SSA 5.0 mM, 2.5% ethanol, negative = enhanced growth, listed as 10
Method: as §1, §2, §3, §4, §5, §6, §7, §8

E. faecalis NCTC 775 = assay: inhibition of bacterial growth, OD600 after 20 h; type: cell-based, Enterococcus faecalis; settings: SSA 5.0 mM, 2.5% ethanol, negative = enhanced growth
Method: as §1, §2, §3, §4, §5, §6, §7, §8

E. faecium NCTC 12204 = assay: inhibition of bacterial growth, OD600 after 20 h; type: cell-based, Enterococcus faecium; settings: SSA 5.0 mM, 2.5% ethanol, negative = enhanced growth
Method: as §1, §2, §3, §4, §5, §6, §7, §8

Caco-2 cell line = assay: bi-directional permeability in Caco-2 cell line; type: in vitro ADME, human
Method: Metabolic stability was assessed in mouse and rat liver microsomes. Microsomes are subcellular fractions of hepatocytes and contain CYP450s, the predominant enzymes involved in first-pass metabolism.[66] […] A plasma protein binding assay was performed to assess the extent of compound binding to plasma proteins. This is key as only unbound compound is free to distribute and exert a pharmacological effect. […] To assess the potential for this sub-class of SSAs to be developed as drugs for oral administration, Caco-2 permeability assays were also performed, as a cellular model indicative of human intestinal permeability. […]
Sample analysis was by electrospray ionisation. […]
Bi-directional Permeability in Caco-2 Cell Line:
The bi-directional permeability in Caco-2 cell lines was determined by seeding cells onto an HTS Transwell plate. Cells were cultivated for 14-18 days in a cell culture incubator at 37 °C, 5 % CO2, 95 % relative humidity. Cell culture medium was replaced every other day. To assess monolayer integrity the transepithelial electrical resistance (TEER) across the monolayer was measured using Millicell Epithelial volt-ohm meter prior to assay and Lucifer yellow (LY) fluorescence measurement post-assay.
Test and control compounds were prepared in DMSO and diluted in Hank’s Balanced Saline […]
Solution (HBSS, pH 7.4) to a final concentration of 5 or 10 µM. Compound was added to the […]
donor compartment of the transwell plate for both apical to basolateral (A>B) and basolateral […]
to apical (B>A) measurements, with blank HBSS being added to the receiver compartment.
The transwell plate was then incubated at 37 °C, 5 % CO2 for 2 hours.

[4] = protein binding in human plasma by equilibrium dialysis; type: in vitro ADME
Method: Metabolic stability was assessed in mouse and rat liver microsomes. […] A plasma protein binding assay was performed to assess the extent of compound binding to plasma proteins. This is key as only unbound compound is free to distribute and exert a pharmacological effect. […] To assess the potential for this sub-class of SSAs to be developed as drugs for oral administration, Caco-2 permeability assays were also performed, as a cellular model indicative of human intestinal permeability. […] The […] MS/MS analysis. Samples were analysed using a Shimadzu liquid chromatography system coupled to a Triple Quad 6500+ mass spectrometry (AB Inc.) Separation of compounds was achieved using an HSS T3 column (50 x 2.1 mm) at a temperature of 40 °C and a binary mobile phase gradient at a flow rate of 0.7 mL/min. […] This was ramped to 95 % solvent B at 0.7 minutes, held for 0.5 minutes and then […] returned to initial conditions. Sample analysis was by electrospray ionisation. Protein Binding Measurements in Human Plasma by Using Equilibrium Dialysis Method : The fraction unbound in human plasma (P -KB, Ltd People's hospital of Shandong) were measured using 96-well Equilibrium Dialysis Plate (HTDialysis LLC, Gales Ferry, CT). Human plasma containing 5 μM test compound were dialysed against dialysis buffer (PBS) with initial samples taken to allow for assessment of plasma stability and recovery before the plate was incubated for 6 hours at 37 °C at 5 % CO2. Samples were removed at 6 hours, and all samples […] appropriate analytical internal standard. Samples were centrifuged at 3,220 g for 30 minutes (Eppendorf 5810R) to precipitate protein and enable sampling of supernatant prior to appropriate dilution for liquid chromatography mass -spectrometry (LC-MS/MS) analysis. Samples were analysed using a Shimadzu coupled to a triple Quad 6500 + (AB Inc., Illinois). Separation of analytes was achieved using a Xselect Hss T3 (2.1 x 50 mm) column at a temperature of 40 °C and a binary mobile phase gra dient at a flow rate of 0.8 mL/min. Initial […] formic acid in acetonitrile); this was ramped to 98 % B at 0.5 min, held for 0.4 min and then immediately returned to initial conditions. Sample analysis was by electrospray ionisation in positive ion mode. Bi-directional Permeability in Caco-2 Cell Line: The bi-directional permeability in Caco-2 cell lines was determined by seeding cells onto an HTS Transwell plate. Cells were cultivated for 14-18 days in a cell culture incubator at 37 °C, 5 % CO2, 95 % relative humidity. Cell culture medium was replaced every other day. To assess monolayer integrity the transepithelial electrical resistance (TEER) across the monolayer was measured using Millicell Epithelial volt-ohm meter prior to assay and Lucifer yellow (LY) fluorescence measurement post-assay. Test and control compounds were prepared in DMSO and diluted in Hank's Balanced Saline […] Compound was added to the donor compartment of the transwell plate for both apical to basolateral (A>B) and basolateral to apical (B>A) measurements, with blank HBSS being added to the receiver compartment. The transwell plate was then incubated at 37 °C, 5 % CO2 for 2 hours. 5

[5] = 5.6 mM, D2O 5.0% EtOH, 298 K, listed as 10
[6] = Caco-2, 5 or 10 µM, HBSS pH 7.4, 2 hours

O=C(O)CC[C@H](NC(=O)Nc1ccc(Br)cc1)C(=O)O [SSA 10]
(Q) 1H NMR spectroscopy, proportion NMR silent, acid or anion [1, 5]: 38%
(Q) 1H NMR spectroscopy, proportion NMR silent, cation [1, 5]: 43.6% and 44%
(Q) 1H NMR, proportion NMR silent, SSA acid or anion ([1]; ~112 mM, DMSO-d6 1.0% DCM): 0%
(Q) 1H NMR, proportion NMR silent, cation ([1]; ~112 mM, DMSO-d6 1.0% DCM): 0%
CAC ([2]; H2O 5.0% EtOH, 298 K): 26.00 mM and 26 mM
ST at CAC ([2]; H2O 5.0% EtOH, 298 K): 41 mN m^−1
Surface tension at CAC ([2]; H2O/5.0 % EtOH, listed as 10): 41.37 mN/m
Polydispersity index (%) [3]: 26.0 (± 0.5) %
dH (DLS intensity distribution peak 1 maxima) [3]: 307 nm
inhibition at 5000 µM (K. pneumoniae M6; Klebsiella pneumoniae, M6, 20 h, read-out: Percentage inhibition of bacterial growth, M6 (K. pneumoniae)): 32%
Percentage inhibition of bacterial growth, M6 (K. pneumoniae) (K. pneumoniae M6; listed as 10): 32%
inhibition at 5000 µM (E. coli NCTC 12923; Escherichia coli, NCTC12923, 20 h, read-out: Percentage inhibition of bacterial growth, NCTC 12923 (E. coli)): 67.9%
Percentage inhibition of bacterial growth, NCTC 12923 (E. coli) (E. coli NCTC 12923; listed as 10): 68%
Percentage inhibition of bacterial growth, ATCC 17978 (A. baumannii) (A. baumannii ATCC 17978): 49.97% and 50%
Percentage inhibition of bacterial growth, ATCC 9144 (S. aureus) (S. aureus ATCC 9144): 17.46% and 17%
inhibition at 5000 µM (E. faecalis NCTC 775; Enterococcus faecalis, NCTC775, 20 h, read-out: Percentage inhibition of bacterial growth, NCTC 775 (E. faecalis)): 23.1%
Percentage inhibition of bacterial growth, NCTC 775 (E. faecalis) (E. faecalis NCTC 775; listed as 10): 23%
inhibition at 5000 µM (E. faecium NCTC 12204; Enterococcus faecium, NCTC12204, 20 h, read-out: Percentage inhibition of bacterial growth, NCTC 12204 (E. faecium)): 34.1%
Percentage inhibition of bacterial growth, NCTC 12204 (E. faecium) (E. faecium NCTC 12204; listed as 10): 34%

C[C@H]1O[C@@H](O[C@H]2[C@@H](O)C[C@H](O[C@H]3[C@@H](O)C[C@H](O[C@H]4CC[C@@]5(C)[C@H](CC[C@@H]6[C@@H]5C[C@@H](O)[C@]5(C)[C@@H](C7=CC(=O)OC7)CC[C@]65O)C4)O[C@@H]3C)O[C@@H]2C)C[C@H](O)[C@@H]1O [Digoxin, reference compound]
Efflux Ratio (Caco-2 cell line; Caco-2): 45.59
Recovery (%) AP-BL (Caco-2 cell line; Caco-2): 95.92%
Recovery (%) BL-AP (Caco-2 cell line; Caco-2): 99.20%
Papp (A-B) (Caco-2 cell line; [6]): 0.42 10-6, cm/s
Papp (B-A) (Caco-2 cell line; [6]): 18.74 10-6, cm/s

CC(=O)N1CCN(c2ccc(OCC3COC(Cn4ccnc4)(c4ccc(Cl)cc4Cl)O3)cc2)CC1 (stereo not drawn) [Ketoconazole, reference compound]
remaining at 6 h, 5 µM ([4]; human plasma, 5 µM, 37 °C): 101%
% Unbound ([4]; human, plasma): 0.86%
fraction unbound ([4]; human, plasma): 0.0086
